Reference: patent publication US20040171824A1, “A Lac operator-repressor system” (priority 2001, published 2004)

Assays:
[1] = test system: mouse L-cells stably transfected with lacI expression vector; details: MSV-CAT reporter with lac operators; cited from earlier work
[2] = test system: tyrosinase expression in Tyr^lacO, LacI double transgenic mice; test: IPTG derepression of tyrosinase expression (pigmentation) in Tyr^lacO, LacI double transgenic mice; assay type: in vivo, mouse
Method: The lac operator-repressor system of the present invention was tested in mice using a regulatable version of a well-characterized visible marker gene, tyrosinase. Tyrosinase is the protein product of the albino (c) locus (Kwon et al., PNAS 84, 7473-7477 (1987)), and is the enzyme that catalyzes the first step in melanin biosynthesis. The target transgene consists of the wildtype murine tyrosinase cDNA under the control of the murine tyrosinase promoter modified to contain lac operator sequences (See FIG. 2). The major transcription start site in the tyrosinase promoter is 83 bp upstream of the start codon. To maintain the endogenous spacing of promoter elements in the critical region between the start of transcription and the start of translation, a PCR-based, site-directed mutagenesis was used to change 25 bp of the endogenous sequence to create a primary lac operator centered at 59 bp upstream of the start of translation. Additional operators were inserted 176 bp and 526 bp upstream of the primary operator (FIG. 2). Mice containing this modified Tyrosinase transgene resemble pigmented animals previously described (Methot et al., nucleic Acids Research, 23, 4551-4556 (1995)) that had been microinjected with an unregulatable version of the same transgene. Two lines of pigmented Tyrosinase transgenic mice were established containing the regulatable transgene. […]

[3] = Tolerability of IPTG in the drinking water of Tyr^lacO, LacI double-transgenic mice; assay type: in vivo, mouse
Method: Tyrosinase activity was derepressed by replacing the drinking water with a 10 mM solution of IPTG (changed every four days). To allow for the normal pattern of tyrosinase expression during development, the female was started on 10 mM IPTG at day 7 of pregnancy.

[4] = cited from earlier work
[5] = test system: tyrosinase expression in Tyr^lacO, LacI double transgenic embryos and pups; test: Transplacental IPTG regulation and reversibility of pigmentation in embryonic and newborn double transgenic mice; assay type: in vivo, mouse
Excerpt: To determine if lac elements could regulate pigmentation during embryogenesis and if IPTG could act transplacentally, the pigmentation in the developing retinal pigment epithelium of embryonic and newborn mice was investigated. At E9, tyrosinase activity in the embryonic eye of wild type mice begins to deposit pigment in the developing retinal pigment epithelium. At E12.5, the mouse RPE clearly is pigmented. Tyr^lacO (43) transgenic mice recapitulate this developmental event. A distinct band of pigmentation surrounding the central lens is seen in the Tyrosinase transgenic embryo that is not seen in the nontransgenic albino.
Finally, the reversibility of the system was tested by switching the Tyrosinase transgene on after it had been off, or off after it had been on, in the same animal. The phenotypes of eyes of newborn mice were compared to the phenotypes of embryonic eyes of mice of the same genotype. […] However, at E12.5, this double transgenic pup has the albino phenotype. […] Reversibility was also observed with regards to switching off the tyrosinase gene after it had intially been on. […] As expected, the eyes remain pigmented due to the low turnover of cells and melanosomes in the RPE.
For embryonic eyes, pregnant females were euthanized at E12.5, and the embryos removed. The head of each embryo was fixed in 2% paraformaldehyde in 0.1 M phosphate (pH 7.4), and the lower half was taken for genotyping. Tyrosinase activity was derepressed by replacing the drinking water with a 10 mM solution of IPTG (changed every four days). To allow for the normal pattern of tyrosinase expression during development, the female was started on 10 mM IPTG at day 7 of pregnancy.

CC(C)S[C@@H]1O[C@H](CO)[C@H](O)[C@H](O)[C@H]1O [IPTG, isopropyl-β-D-thiogalactoside]
CAT activity [1]: marked de-repression of CAT activity
tyrosinase expression / coat phenotype ([2]; double transgenic animal, 10 mM IPTG in the drinking water): derepressed tyrosinase expression
pigmentation in the retinal pigment epithelium (RPE) ([2]; double transgenic mouse treated with IPTG, eye sections): restoration of pigmentation in the RPE to levels indistinguishable from the nonrepressed state
deleterious effects on long-term administration ([3]; 10 mM IPTG in drinking water for up to 8 months): no deleterious effects
toxicity of the circulating level that derepresses target gene expression ([3]; IPTG in the drinking water): completely nontoxic
tissue distribution ([4]; adult animal, spleen, liver, lung, kidney, brain, adipose tissue): widespread
nuclear uptake of inducer, of the total cell uptake ([4]; average): 18%
clearance from the blood ([4]; in vivo): rapidly cleared from the blood
metabolism in the animal ([4]; in vivo): not metabolized
relative concentration of inducer to repressor molecules versus that required for maximal induction in E. coli ([4]; in vivo): ~1000 fold
time functionally active after introduction into the bloodstream ([4]; in vivo): at least 4 hours
time to reach high levels in cells of tissues ([4]; uptake by facilitated transport into tissues of the animal): 2 to 4 h
pigmentation of the embryonic RPE ([5]; double-transgenic embryo at E12.5, mother on 10 mM IPTG in drinking water during pregnancy): not when the mother was treated with IPTG during pregnancy
placental transfer ([5]; mother given IPTG in drinking water): can cross the placenta
switching tyrosinase expression on after a period of silencing (eye pigmentation at birth) ([5]; mother started on IPTG at E12.5 of pregnancy): able to switch tyrosinase expression on
coat phenotype after removal of IPTG ([5]; pup's mother taken off IPTG at P9): reversion of the coat phenotype to albino
